Measured values taken from patent publication US4081531A, “Antibiotic mimosamycin” (priority 1975, dated 1978).
In brackets after ≈: the same amount, converted by molar mass.

Key:
[1] = Tolerability in mice, intravenous injection; type: in vivo; conditions: for toxicity: mice
Protocol: (§1) Remarks: Nutrient agar, 37° C, 48 hours for m. smegmatis. Sauton's liquid medium, 37° C, 4 weeks for other 3 strains. The strains SMR and Matsudo resistant to streptomycin at 1000 μg/ml or higher. Mice (18 - 20 g.) tolerated intravenous injection of 50 mg./kg. of mimosamycin.
(A) and 250 mg./kg.(B and C), respectively.

acid-fast bacteria = assay: Activity against acid-fast bacteria; type: cell-based
gram-positive bacteria = assay: Antibacterial activity against gram-positive bacteria; type: cell-based; conditions: for antibacterial activity against gram-positive bacteria: chlorocarcins, summary of Table 5
[2] = test system: highly streptomycin-resistant strains of human tubercle bacilli; type: cell-based; conditions: as is against normal strains of tubercle bacilli
fungi = assay: Activity against fungi; type: cell-based; conditions: at 50 μg/ml
gram-negative bacteria = assay: Antibacterial activity against gram-negative bacteria; type: cell-based; conditions: for antibacterial activity against most gram-negative bacteria: chlorocarcins, summary of Table 5
[3] = test system: Mycobacterium smegmatis ATCC607; assay: Antimicrobial activity (MIC) of mimosamycin; type: cell-based; conditions: Mycolicibacterium smegmatis, Nutrient agar, 37° C, 48 hours
Protocol: as §1

Solubility = type: physicochemical
tubercle bacilli = assay: Effect against tubercle bacilli; type: cell-based
[4] = test system: Mycobacterium bovis No. 10; assay: microbe, parasite or virus in culture; type: cell-based; conditions: Mycobacterium tuberculosis variant bovis, NO.10, 672 h
[5] = test system: Mycobacterium tuberculosis H37 RV; assay: Antimicrobial activity (MIC) against tubercle bacilli; type: cell-based; conditions: H37RV, 672 h, Sauton's liquid medium, 37° C, 4 weeks
[6] = test system: Streptococcus hemolyticus Coock; assay: Antimicrobial spectrum (MIC); type: cell-based; conditions: blood agar, 37° C, 24 or 48 hours
Streptococcus faecalis = assay: Antimicrobial spectrum (MIC); type: cell-based; conditions: 1% glucose nutrient agar, 37° C, 24 or 48 hours
Corynebacterium xerosis = assay: Antimicrobial spectrum (MIC); type: cell-based; conditions: 1% glucose nutrient agar, 37° C, 24 or 48 hours
Nocardia asteoides = assay: Antimicrobial spectrum (MIC); type: cell-based; conditions: 37° C, 24 or 48 hours
Staphylococcus citreus = assay: Antimicrobial spectrum (MIC); type: cell-based; conditions: 1% glucose nutrient agar, 37° C, 24 or 48 hours
Staphylococcus albus = assay: Antimicrobial spectrum (MIC); type: cell-based; conditions: 1% glucose nutrient agar, 37° C, 24 or 48 hours
Escherichia coli = assay: Antimicrobial spectrum (MIC); type: cell-based; conditions: 1% glucose nutrient agar, 37° C, 24 or 48 hours
Streptococcus salivarius = assay: Antimicrobial spectrum (MIC); type: cell-based; conditions: 1% glucose nutrient agar, 37° C, 24 or 48 hours
[7] = test system: Bacillus subtilis PCI 219; assay: Antimicrobial spectrum (MIC); type: cell-based; conditions: 1% glucose nutrient agar, 37° C, 24 or 48 hours
Aspergillus niger = assay: Antimicrobial spectrum (MIC); type: cell-based; conditions: Sabouraud dextrose agar, 27° C, 48 hours
Mucor mucedo = assay: Antimicrobial spectrum (MIC); type: cell-based; conditions: Sabouraud dextrose agar, 27° C, 48 hours
Brucella abortus = type: cell-based; conditions: blood agar, 37° C, 24 or 48 hours
[8] = test system: Corynebacterium diphtheriae; assay: Antimicrobial spectrum (MIC); type: cell-based; conditions: 1% glucose nutrient agar, 37° C, 24 or 48 hours
Salmonella typhimurium = assay: Antimicrobial spectrum (MIC); type: cell-based; conditions: 1% glucose nutrient agar, 37° C, 24 or 48 hours
Candida albicans = assay: Antimicrobial spectrum (MIC); type: cell-based; conditions: Sabouraud dextrose agar, 27° C, 48 hours
Mycobacterium avium = assay: Antimicrobial spectrum (MIC); type: cell-based; conditions: 3% glycerin nutrient agar, 37° C, 24 or 48 hours
[9] = test system: Staphylococcus aureus 209 P; assay: Antimicrobial spectrum (MIC); type: cell-based; conditions: 1% glucose nutrient agar, 37° C, 24 or 48 hours
[10] = test system: Mycobacterium smegmatis ATCC 607; assay: Antimicrobial spectrum (MIC); type: cell-based; conditions: 3% glycerin nutrient agar, 37° C, 24 or 48 hours
[11] = test system: Streptococcus hemolyticus 090R; assay: Antimicrobial spectrum (MIC); type: cell-based; conditions: blood agar, 37° C, 24 or 48 hours
Shigella dysenteriae = assay: Antimicrobial spectrum (MIC); type: cell-based; conditions: 1% glucose nutrient agar, 37° C, 24 or 48 hours
Tolura rubra = assay: Antimicrobial spectrum (MIC); type: cell-based; conditions: Sabouraud dextrose agar, 27° C, 48 hours
Serratia marcescens = assay: Antimicrobial spectrum (MIC); type: cell-based; conditions: 1% glucose nutrient agar, 37° C, 24 or 48 hours
Mycobacterium phlei = assay: Antimicrobial spectrum (MIC); type: cell-based; conditions: 3% glycerin nutrient agar, 37° C, 24 or 48 hours
Penicillium glaucum = assay: Antimicrobial spectrum (MIC); type: cell-based; conditions: Sabouraud dextrose agar, 27° C, 48 hours
[12] = test system: Staphylococcus aureus Smith; assay: Antimicrobial spectrum (MIC); type: cell-based; conditions: 1% glucose nutrient agar, 37° C, 24 or 48 hours
Lactobacillus arabinosus = assay: Antimicrobial spectrum (MIC); type: cell-based; conditions: 1% glucose nutrient agar, 37° C, 24 or 48 hours
Saccharomyces cerevisiae = assay: Antimicrobial spectrum (MIC); type: cell-based; conditions: Sabouraud dextrose agar, 27° C, 48 hours
Aspergillus oryzae = assay: Antimicrobial spectrum (MIC); type: cell-based; conditions: Sabouraud dextrose agar, 27° C, 48 hours
Pseudomonas aeruginosa = assay: Antimicrobial spectrum (MIC); type: cell-based; conditions: 1% glucose nutrient agar, 37° C, 24 or 48 hours
Klebsiella pneumonaie = assay: Antimicrobial spectrum (MIC); type: cell-based; conditions: 1% glucose nutrient agar, 37° C, 24 or 48 hours
[13] = test system: Trichophyton mentagrophytes; assay: Antimicrobial spectrum (MIC); type: cell-based; conditions: Sabouraud dextrose agar, 27° C, 72 hours
Bacillus cereus = assay: Antimicrobial spectrum (MIC); type: cell-based; conditions: 1% glucose nutrient agar, 37° C, 24 or 48 hours
[14] = Lower alcohols, chloroform, esters, acetone, benzene, ethyl ether

COC1=C(C)C(=O)c2cc(=O)n(C)cc2C1=O [mimosamycin]
MTD ([1]; mouse, in vivo, mice 18 - 20 g, read-out: tolerated dose): 50 mg/kg
activity against acid-fast bacteria (acid-fast bacteria): active
activity against gram-positive bacteria (gram-positive bacteria; mimosamycin): active against gram-positive bacteria to a certain extent
activity against highly streptomycin-resistant strains of human tubercle bacilli [2]: effective
activity against fungi (fungi): non-effective
activity against gram-negative bacteria (gram-negative bacteria; at 50 μg/ml): non-effective
MIC [3]: 25 mg/L (≈ 107 µM)
Solubility (Solubility; Ethyl ether, n-hexane): Sparingly soluble
Solubility (Solubility; Methanol, ethanol, chloroform, esters, acetone): Easily soluble
Solubility (Solubility; Water): Insoluble
effect against tubercle bacilli (tubercle bacilli): specifically effective
MIC [4]: 6.25 mg/L (≈ 26.8 µM)
MIC [5]: 1.56 mg/L (≈ 6.69 µM)

chlorocarcin A
MIC [6]: 6.25 mg/L
MIC (Streptococcus faecalis): 25 mg/L
MIC (Corynebacterium xerosis): 0.003 mg/L
MIC (Nocardia asteoides): 25 mg/L
toxicity [1]: relatively low toxicity
MIC (Staphylococcus citreus): 0.1 mg/L
MIC (Staphylococcus albus): 0.1 mg/L
MIC (Escherichia coli): > 100 mg/L
MIC (Streptococcus salivarius): 6.25 mg/L
MIC [7]: 0.2 mg/L
MIC (Aspergillus niger): > 100 mg/L
MIC (Mucor mucedo): > 100 mg/L
MIC (Brucella abortus): > 100 mg/L
MIC [8]: 0.003 mg/L
antibacterial activity against gram-positive bacteria (gram-positive bacteria): mainly show an antibacterial activity
MIC (Salmonella typhimurium): > 100 mg/L
MIC (Candida albicans): > 100 mg/L
MIC (Mycobacterium avium): 100 mg/L
MIC [9]: 0.1 mg/L
MIC [10]: 100 mg/L
MIC [11]: 50 mg/L
MIC (Shigella dysenteriae): > 100 mg/L
MIC (Tolura rubra): > 100 mg/L
MIC (Serratia marcescens): > 100 mg/L
MIC (Mycobacterium phlei): 100 mg/L
MIC (Penicillium glaucum): > 100 mg/L
antibacterial activity against most gram-negative bacteria (gram-negative bacteria): little antibacterial activity
MIC [12]: 0.02 mg/L
MIC (Lactobacillus arabinosus): 12.5 mg/L
MIC (Saccharomyces cerevisiae): > 100 mg/L
MIC (Aspergillus oryzae): > 100 mg/L
Solubility (Solubility; Ethyl ether, esters, chloroform, acetone, alcohols, 0.1N HCl): Easily soluble
Solubility (Solubility; Water): Insoluble
Solubility (Solubility; n-hexane, 0.1N NaOH): Sparingly soluble
MIC (Pseudomonas aeruginosa): > 100 mg/L
MIC (Klebsiella pneumonaie): 100 mg/L
MIC [13]: 100 mg/L
MIC (Bacillus cereus): 50 mg/L

chlorocarcin B
MIC [6]: 6.25 mg/L
MIC (Streptococcus faecalis): > 100 mg/L
MIC (Corynebacterium xerosis): 0.39 mg/L
MIC (Nocardia asteoides): 50 mg/L
toxicity [1]: relatively low toxicity
MIC (Staphylococcus citreus): 25 mg/L
MIC (Staphylococcus albus): 50 mg/L
MIC (Escherichia coli): > 100 mg/L
MIC (Streptococcus salivarius): 50 mg/L
MIC [7]: 25 mg/L
MIC (Aspergillus niger): > 100 mg/L
MIC (Mucor mucedo): > 100 mg/L
MIC (Brucella abortus): > 100 mg/L
MIC [8]: 0.05 mg/L
antibacterial activity against gram-positive bacteria (gram-positive bacteria): mainly show an antibacterial activity
MIC (Salmonella typhimurium): > 100 mg/L
MIC (Candida albicans): > 100 mg/L
MIC (Mycobacterium avium): > 100 mg/L
MIC [9]: 12.5 mg/L
MIC [10]: > 100 mg/L
MIC [11]: 100 mg/L
MIC (Shigella dysenteriae): > 100 mg/L
MIC (Tolura rubra): > 100 mg/L
MIC (Serratia marcescens): > 100 mg/L
MIC (Mycobacterium phlei): > 100 mg/L
MIC (Penicillium glaucum): > 100 mg/L
antibacterial activity against most gram-negative bacteria (gram-negative bacteria): little antibacterial activity
MIC [12]: 12.5 mg/L
MIC (Lactobacillus arabinosus): 50 mg/L
MIC (Saccharomyces cerevisiae): > 100 mg/L
MIC (Aspergillus oryzae): > 100 mg/L
Solubility (Solubility; [14]): Easily soluble
Solubility (Solubility; Water): Insoluble
Solubility (Solubility; n-hexane): Sparingly soluble
MIC (Pseudomonas aeruginosa): > 100 mg/L
MIC (Klebsiella pneumonaie): 50 mg/L
MIC [13]: > 100 mg/L
MIC (Bacillus cereus): 50 mg/L

chlorocarcin C
MIC [6]: 6.25 mg/L
MIC (Streptococcus faecalis): > 100 mg/L
MIC (Corynebacterium xerosis): 0.39 mg/L
MIC (Nocardia asteoides): 50 mg/L
toxicity [1]: relatively low toxicity
MIC (Staphylococcus citreus): 25 mg/L
MIC (Staphylococcus albus): 50 mg/L
MIC (Escherichia coli): > 100 mg/L
MIC (Streptococcus salivarius): 50 mg/L
MIC [7]: 25 mg/L
MIC (Aspergillus niger): > 100 mg/L
MIC (Mucor mucedo): > 100 mg/L
MIC (Brucella abortus): > 100 mg/L
MIC [8]: 0.05 mg/L
antibacterial activity against gram-positive bacteria (gram-positive bacteria): mainly show an antibacterial activity
MIC (Salmonella typhimurium): > 100 mg/L
MIC (Candida albicans): > 100 mg/L
MIC (Mycobacterium avium): > 100 mg/L
MIC [9]: 12.5 mg/L
MIC [10]: > 100 mg/L
MIC [11]: 100 mg/L
MIC (Shigella dysenteriae): > 100 mg/L
MIC (Tolura rubra): > 100 mg/L
MIC (Serratia marcescens): > 100 mg/L
MIC (Mycobacterium phlei): > 100 mg/L
MIC (Penicillium glaucum): > 100 mg/L
antibacterial activity against most gram-negative bacteria (gram-negative bacteria): little antibacterial activity
MIC [12]: 12.5 mg/L
MIC (Lactobacillus arabinosus): 50 mg/L
MIC (Saccharomyces cerevisiae): > 100 mg/L
MIC (Aspergillus oryzae): > 100 mg/L
Solubility (Solubility; [14]): Easily soluble
Solubility (Solubility; Water): Insoluble
Solubility (Solubility; n-hexane): Sparingly soluble
MIC (Pseudomonas aeruginosa): > 100 mg/L
MIC (Klebsiella pneumonaie): 50 mg/L
MIC [13]: > 100 mg/L
MIC (Bacillus cereus): 50 mg/L
